Measurements: patent US6737383B1, “Herbicidal oxadiazolidines” (priority 1999, dated 2004)

How the values were obtained:
morningglory = experiment: Test B pre/postemergence morningglory; assay type: in vivo, Ipomoea hederacea
Outline: (§1)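 Response is a visual 0-to-10 score relative to untreated plants, where 0 means no effect and 10 means complete control, taken twelve to sixteen days after application. Treatments went onto soil at planting and onto foliage of 1- to 4-leaf plants, using a surfactant-containing non-phytotoxic solvent.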

purple nutsedge = experiment: Test B pre/postemergence purple nutsedge; assay type: in vivo, Cyperus rotundus
Outline: as §1

smallflower flatsedge = experiment: Test B flood test smallflower flatsedge; assay type: in vivo, Cyperus difformis
Outline: (§2)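 Flood test on plants grown to the 2-leaf stage; treated plants kept in greenhouse twelve to sixteen days, then visually rated against controls on a 0 (no effect) to 10 (complete control) scale.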

sugar beet = experiment: Test B pre/postemergence sugar beet; assay type: in vivo, Beta vulgaris
Outline: as §1

bamyardgrass = experiment: Test B flood test barnyardgrass; assay type: in vivo, Echinochloa crus-galli
Outline: as §2

duck salad = experiment: Test B flood test duck salad; assay type: in vivo, Heteranthera limosa
Outline: as §2

blackgrass = experiment: Test B pre/postemergence blackgrass; assay type: in vivo, Alopecurus myosuroides
Outline: as §1

soybean = experiment: Test B pre/postemergence soybean; assay type: in vivo, Glycine max
Outline: as §1

bedstraw = experiment: Test B pre/postemergence bedstraw; assay type: in vivo, Galium aparine; conditions: Preemergence; for Bedstraw plant response rating: scale 0 to 10, 0 is no effect, 10 is complete control
Outline: as §1

wheat = experiment: Test B pre/postemergence wheat; assay type: in vivo, Triticum aestivum
Outline: as §1

rape = experiment: Test B pre/postemergence rape; assay type: in vivo, Brassica napus
Outline: as §1

wild oat = experiment: Test B pre/postemergence wild oat; assay type: in vivo, Avena fatua
Outline: as §1

giant foxtail = experiment: Test B pre/postemergence giant foxtail; assay type: in vivo, Setaria faberii
Outline: as §1

surinam grass = experiment: Test B pre/postemergence surinam grass; assay type: in vivo, Brachiaria decumbens
Outline: as §1

pigweed = experiment: Test B pre/postemergence pigweed; assay type: in vivo, Amaranthus retroflexus
Outline: as §1

cocklebur = experiment: Test B pre/postemergence cocklebur; assay type: in vivo, Xanthium strumarium
Outline: as §1

[1] = Postemergence, Rate 62 g/ha, scale of 0 to 10, 0 is no effect, 10 is complete control
[2] = Postemergence, Rate 125 g/ha, scale 0 to 10, 0 is no effect, 10 is complete control
[3] = Postemergence, Rate 500 g/ha, scale 0 to 10, 0 is no effect, 10 is complete control
[4] = Preemergence, Rate 62 g/ha, scale of 0 to 10 where 0 is no effect and 10 is complete control
[5] = Preemergence, Rate 125 g/ha, scale 0 to 10, 0 is no effect, 10 is complete control
[6] = Preemergence, Rate 500 g/ha, scale of 0 to 10 where 0 is no effect and 10 is complete control
[7] = Rate 250 g/ha, Postemergence, scale of 0 to 10 where 0 is no effect and 10 is complete control
[8] = Rate 62 g/ha, flood test species, Pre-emergence, visual evaluation after twelve to sixteen days
[9] = Rate 125 g/ha, under heading Pre-emergence, flood test species, visual evaluation after twelve to sixteen days
[10] = Rate 250 g/ha, Pre-emergence (flood test species), scale 0 to 10, 0 is no effect, 10 is complete control
[11] = Rate 500 g/ha, Pre-emergence section of Table B, 0 to 10 scale (0 no effect, 10 complete control)

In the case of `CC(C)N(C(=O)n1oc(=O)n(CC2CCC2)c1=O)c1ccc(F)cc1F` [Compound 521], the “Morningglory plant response rating” value (morningglory; [1]) is reported as 3, the “Morningglory plant response rating” value (morningglory; [2]) is reported as 4 and the “Plant response rating, Morningglory” value (morningglory; [3]) is reported as 5. The “Plant response rating, Morningglory” value (morningglory; [4]) was 0, the “Morningglory plant response rating” value (morningglory; [5]) was 0 and the “Morningglory plant response rating (0 to 10 scale)” value (morningglory; Preemergence, Rate 250 g/ha) was 0. For the same compound, the “Morningglory plant response rating” value (morningglory; [6]) was 0, the “Plant response rating, Morningglory” value (morningglory; [7]) was 3 and the “Nutsedge plant response rating” value (purple nutsedge; [1]) was 0. For the same compound, the “Nutsedge plant response rating” value (purple nutsedge; [2]) was 0, the “Plant response rating, Nutsedge” value (purple nutsedge; [3]) was 0 and the “Plant response rating, Nutsedge” value (purple nutsedge; [4]) was 0. For the same compound, the “Nutsedge plant response rating” value (purple nutsedge; [5]) was 0, the “Nutsedge plant response rating (0 to 10 scale)” value (purple nutsedge; Preemergence, Rate 250 g/ha) was 0 and the “Nutsedge plant response rating” value (purple nutsedge; [6]) was 0. The “Plant response rating, Nutsedge” value (purple nutsedge; [7]) was 0, the “Plant response rating, S. Flatsedge (0 to 10 scale, 0 is no effect, 10 is complete control)” value (smallflower flatsedge; [8]) was 0 and the “S. Flatsedge plant response rating (0 to 10 scale, 0 is no effect, 10 is complete control)” value (smallflower flatsedge; [9]) was 0. For the same compound, the “S. Flatsedge plant response rating” value (smallflower flatsedge; [10]) was 0, the “S. Flatsedge plant response rating” value (smallflower flatsedge; [11]) was 0 and the “Sugarbeets plant response rating” value (sugar beet; [1]) was 0. For the same compound, the “Sugarbeets plant response rating” value (sugar beet; [2]) was 0, the “Plant response rating, Sugarbeets” value (sugar beet; [3]) was 4 and the “Plant response rating, Sugarbeets” value (sugar beet; [4]) was 0. The “Sugarbeets plant response rating” value (sugar beet; [5]) was 0, the “Sugarbeets plant response rating (0 to 10 scale)” value (sugar beet; Preemergence, Rate 250 g/ha) was 3 and the “Sugarbeets plant response rating” value (sugar beet; [6]) was 3. For the same compound, the “Plant response rating, Sugarbeets” value (sugar beet; [7]) was 0, the “Plant response rating, Barnyardgrass (0 to 10 scale, 0 is no effect, 10 is complete control)” value (bamyardgrass; [8]) was 0 and the “Barnyardgrass plant response rating (0 to 10 scale, 0 is no effect, 10 is complete control)” value (bamyardgrass; [9]) was 0. For the same compound, the “Barnyardgrass plant response rating” value (bamyardgrass; [10]) was 0, the “Barnyardgrass plant response rating” value (bamyardgrass; [11]) was 0 and the “Plant response rating, Ducksalad (0 to 10 scale, 0 is no effect, 10 is complete control)” value (duck salad; [8]) was 0. For the same compound, the “Ducksalad plant response rating (0 to 10 scale, 0 is no effect, 10 is complete control)” value (duck salad; [9]) was 0, the “Ducksalad plant response rating” value (duck salad; [10]) was 0 and the “Ducksalad plant response rating” value (duck salad; [11]) was 0. The “Blackgrass plant response rating” value (blackgrass; [1]) was 2, the “Blackgrass plant response rating” value (blackgrass; [2]) was 2 and the “Plant response rating, Blackgrass” value (blackgrass; [3]) was 9. For the same compound, the “Plant response rating, Blackgrass” value (blackgrass; [4]) was 0, the “Blackgrass plant response rating” value (blackgrass; [5]) was 0 and the “Blackgrass plant response rating (0 to 10 scale)” value (blackgrass; Preemergence, Rate 250 g/ha) was 0. The “Blackgrass plant response rating” value (blackgrass; [6]) was 3, the “Plant response rating, Blackgrass” value (blackgrass; [7]) was 7 and the “Soybean plant response rating” value (soybean; [1]) was 4. The “Soybean plant response rating” value (soybean; [2]) was 4, the “Plant response rating, Soybean” value (soybean; [3]) was 5 and the “Plant response rating, Soybean” value (soybean; [4]) was 0. For the same compound, the “Soybean plant response rating” value (soybean; [5]) was 0, the “Soybean plant response rating (0 to 10 scale)” value (soybean; Preemergence, Rate 250 g/ha) was 0 and the “Soybean plant response rating” value (soybean; [6]) was 0. The “Plant response rating, Soybean” value (soybean; [7]) was 5, the “Plant response rating, Bedstraw” value (bedstraw; Rate 62 g/ha, scale of 0 to 10 where 0 is no effect and 10 is complete control) was 0 and the “Bedstraw plant response rating” value (bedstraw; Rate 125 g/ha) was 0. For the same compound, the “Bedstraw plant response rating (0 to 10 scale)” value (bedstraw; Rate 250 g/ha) was 0, the “Bedstraw plant response rating” value (bedstraw; Rate 500 g/ha) was 0 and the “Wheat plant response rating” value (wheat; [1]) was 0. For the same compound, the “Wheat plant response rating” value (wheat; [2]) was 0, the “Plant response rating, Wheat” value (wheat; [3]) was 2 and the “Plant response rating, Wheat” value (wheat; [4]) was 0. The “Wheat plant response rating” value (wheat; [5]) was 0, the “Wheat plant response rating (0 to 10 scale)” value (wheat; Preemergence, Rate 250 g/ha) was 0 and the “Wheat plant response rating” value (wheat; [6]) was 0. The “Plant response rating, Wheat” value (wheat; [7]) was 0, the “Rape plant response rating” value (rape; [1]) was 0 and the “Rape plant response rating” value (rape; [2]) was 0. For the same compound, the “Plant response rating, Rape” value (rape; [3]) was 3, the “Plant response rating, Rape” value (rape; [4]) was 0 and the “Rape plant response rating” value (rape; [5]) was 0. For the same compound, the “Rape plant response rating (0 to 10 scale)” value (rape; Preemergence, Rate 250 g/ha) was 2, the “Rape plant response rating” value (rape; [6]) was 2 and the “Plant response rating, Rape” value (rape; [7]) was 2. For the same compound, the “Wild oats plant response rating” value (wild oat; [1]) was 0, the “Wild oats plant response rating” value (wild oat; [2]) was 0 and the “Plant response rating, Wild oats” value (wild oat; [3]) was 2. The “Plant response rating, Wild oats” value (wild oat; [4]) was 0, the “Wild oats plant response rating” value (wild oat; [5]) was 0 and the “Wild oats plant response rating (0 to 10 scale)” value (wild oat; Preemergence, Rate 250 g/ha) was 0. For the same compound, the “Wild oats plant response rating” value (wild oat; [6]) was 2, the “Plant response rating, Wild oats” value (wild oat; [7]) was 0 and the “Giant foxtail plant response rating” value (giant foxtail; [1]) was 4. For the same compound, the “Giant foxtail plant response rating” value (giant foxtail; [2]) was 8, the “Plant response rating, Giant foxtail” value (giant foxtail; [3]) was 9 and the “Plant response rating, Giant foxtail” value (giant foxtail; [4]) was 10. The “Giant foxtail plant response rating” value (giant foxtail; [5]) was 10, the “Giant foxtail plant response rating (0 to 10 scale)” value (giant foxtail; Preemergence, Rate 250 g/ha) was 10 and the “Giant foxtail plant response rating” value (giant foxtail; [6]) was 10. For the same compound, the “Plant response rating, Giant foxtail” value (giant foxtail; [7]) was 9, the “B. signalgrass plant response rating” value (surinam grass; [1]) was 0 and the “B. signalgrass plant response rating” value (surinam grass; [2]) was 0. The “Plant response rating, B. signalgrass” value (surinam grass; [3]) was 3, the “Plant response rating, B. signalgrass” value (surinam grass; [4]) was 0 and the “B. signalgrass plant response rating” value (surinam grass; [5]) was 0. The “B. signalgrass plant response rating (0 to 10 scale, 0 is no effect, 10 is complete control)” value (surinam grass; Preemergence, Rate 250 g/ha) was 0, the “B. signalgrass plant response rating” value (surinam grass; Preemergence, Rate 500 g/ha, scale 0 to 10, 0 is no effect, 10 is complete control) was 9 and the “Plant response rating, B. signalgrass” value (surinam grass; [7]) was 0. The “Redroot pigweed plant response rating” value (pigweed; [1]) was 0, the “Redroot pigweed plant response rating” value (pigweed; [2]) was 0 and the “Plant response rating, Redroot pigweed” value (pigweed; [3]) was 4. The “Plant response rating, Redroot pigweed” value (pigweed; [4]) was 0, the “Redroot pigweed plant response rating” value (pigweed; [5]) was 0 and the “Redroot pigweed plant response rating (0 to 10 scale)” value (pigweed; Preemergence, Rate 250 g/ha) was 0. For the same compound, the “Redroot pigweed plant response rating” value (pigweed; [6]) was 0, the “Plant response rating, Redroot pigweed” value (pigweed; [7]) was 0 and the “Cocklebur plant response rating” value (cocklebur; [1]) was 0. The “Cocklebur plant response rating” value (cocklebur; [2]) was 0, the “Plant response rating, Cocklebur” value (cocklebur; [3]) was 0 and the “Plant response rating, Cocklebur” value (cocklebur; [4]) was 0. The “Cocklebur plant response rating” value (cocklebur; [5]) was 0, the “Cocklebur plant response rating (0 to 10 scale)” value (cocklebur; Preemergence, Rate 250 g/ha) was 0 and the “Cocklebur plant response rating” value (cocklebur; [6]) was 0. The “Plant response rating, Cocklebur” value (cocklebur; [7]) was 0.
